The values below come from patent US12540118B2, “Dendrene amide compound, bactericide and use thereof” (Jiangsu Flag Chemical Industry Co., Ltd., priority 2020, dated 2026).

The subject of test [1] is Erysiphe graminis. Description: Erysiphe graminis potting method. Format: in vivo. The settings on record: Blumeria graminis, read-out: Erysiphe graminis control rating; for pest or weed control at 100 µg/mL: 100 mg/L; for pest or weed control at 6.25 µg/mL: 6.25 mg/L; for pest or weed control at 25 µg/mL: 25 mg/L. The protocol: The fungicidal activity of the control agents and target compounds are determined. The test and investigation method refers to SOP-SC-1116 Erysiphe graminis potting method in disinfectant rolls written by KANGZHUO and GUBAOGEN in “Standard operation specification for testing biological activity of pesticides”.

The target of test [2] is T1, succinate dehydrogenase (Sus scrofa, UniProt A5GZW8+D0VWV4+Q007T0).
T1 construct: isolated from porcine hearts; from tissue; host or cells: porcine heart
Description: Enzyme activity assay, succinate dehydrogenase (DCIP reduction). Particulars: read-out: Inhibitors (10 μM, SQR). The format is biochemical, porcine. Summed up: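 Porcine heart succinate dehydrogenase (2 nM) in 100 mM sodium phosphate pH 7.4, 0.3 mM EDTA, 20 mM sodium succinate and 53 μM DCIP at 23° C with stirring. DCIP reduction followed at 600 nm (ε 21 mM^−1 cm^−1); linear slope minus baseline gives initial rate.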

For test [3], the system named is Sphaerotheca fuliginea. The experiment in a line: Sphaerotheca fuliginea potting method. The format is in vivo. Particulars: Podosphaera fuliginea; 100 mg/L; read-out: Sphaerotheca fuliginea control rating. The protocol:
The fungicidal activity of the control agents and target compounds are determined. The test and investigation method refers to SOP-SC-1101 sphaerotheca fuliginea potting method in disinfectant rolls written by KANGZHUO and GUBAOGEN in “Standard operation specification for testing biological activity of pesticides”.

T1 sequence (Q0QF01 43-664 partner): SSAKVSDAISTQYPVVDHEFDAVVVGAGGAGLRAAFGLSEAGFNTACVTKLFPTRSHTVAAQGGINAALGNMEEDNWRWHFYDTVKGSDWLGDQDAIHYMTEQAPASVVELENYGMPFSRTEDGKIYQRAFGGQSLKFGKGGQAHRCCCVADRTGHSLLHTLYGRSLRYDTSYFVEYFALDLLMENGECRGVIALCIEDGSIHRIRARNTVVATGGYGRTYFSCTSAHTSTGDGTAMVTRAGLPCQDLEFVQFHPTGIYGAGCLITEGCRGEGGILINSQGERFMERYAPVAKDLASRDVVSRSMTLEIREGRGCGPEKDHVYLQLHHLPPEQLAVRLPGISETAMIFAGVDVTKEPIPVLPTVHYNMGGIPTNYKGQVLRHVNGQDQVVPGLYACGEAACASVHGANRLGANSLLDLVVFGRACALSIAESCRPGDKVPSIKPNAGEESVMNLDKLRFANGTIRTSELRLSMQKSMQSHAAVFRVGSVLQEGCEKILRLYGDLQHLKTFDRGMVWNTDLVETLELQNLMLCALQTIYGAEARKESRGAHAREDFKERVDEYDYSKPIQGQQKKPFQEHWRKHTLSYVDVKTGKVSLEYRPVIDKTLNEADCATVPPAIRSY
T1 sequence (Q007T0 29-280): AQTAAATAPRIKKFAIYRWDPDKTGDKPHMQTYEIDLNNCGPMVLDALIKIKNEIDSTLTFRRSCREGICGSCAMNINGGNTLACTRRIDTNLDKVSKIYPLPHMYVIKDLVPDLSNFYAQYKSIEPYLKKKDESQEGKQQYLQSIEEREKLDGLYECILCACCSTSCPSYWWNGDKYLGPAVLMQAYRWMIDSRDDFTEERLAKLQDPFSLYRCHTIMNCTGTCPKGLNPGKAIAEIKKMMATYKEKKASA
T1 sequence (D0VWV4 30-169): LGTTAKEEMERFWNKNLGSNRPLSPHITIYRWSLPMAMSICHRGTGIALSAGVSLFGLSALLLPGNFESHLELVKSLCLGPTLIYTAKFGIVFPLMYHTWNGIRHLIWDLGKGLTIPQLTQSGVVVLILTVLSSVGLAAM
T1 sequence (A5GZW8 57-159 limits assumed): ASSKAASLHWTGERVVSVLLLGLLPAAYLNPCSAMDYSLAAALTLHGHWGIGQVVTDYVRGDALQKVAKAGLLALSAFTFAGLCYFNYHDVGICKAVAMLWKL

Take `C=C(CN(C(=O)c1c(C(F)F)nn(C)c1F)C1CC1)c1ccc(Cl)cc1` [Compound 17]: the pest or weed control at 100 µg/mL in test [1] and in test [3] was 80 to 100% in each case. For the same compound, in test [2], the inhibition at 10 µM is over 90%.
As to `Cc1cccc(C)c1C(CN(C(=O)c1c(C(F)F)nn(C)c1F)C1CC1)=C(Cl)Cl` [Compound 142], the pest or weed control at 100 µg/mL in test [1] and in test [3] was 80 to 100% each time. In test [2], the inhibition at 10 µM is over 90%.
Take `C=C(c1ccccc1C(F)(F)F)C(C)N(C(=O)c1c(C(F)F)nn(C)c1F)C1CC1` (stereo not shown) [Compound 71]: the pest or weed control at 100 µg/mL in test [1] and in test [3] was 80 to 100% in each case. In addition, the inhibition at 10 µM in test [2] was over 90%.
As for `Cn1nc(C(F)F)c(C(=O)N(CC(=C(Cl)Cl)c2ccc(F)cc2Cl)C2CC2)c1F` [Compound 154], the pest or weed control at 100 µg/mL in test [1] and in test [3] was 80 to 100% each time. For the same compound, the inhibition at 10 µM in test [2] was over 90%.
In the case of `Cc1ccc(C(CN(C(=O)c2c(C(F)F)nn(C)c2F)C2CC2)=C(Cl)Cl)c(C)c1` [Compound 140], the pest or weed control at 100 µg/mL in test [1] and in test [3] was 80 to 100% in each case. In addition, the inhibition at 10 µM in test [2] was over 90%.
For the compound `C=C(CN(C(=O)c1c(C(F)F)nn(C)c1F)C1CC1)c1c(C)cc(C)cc1C` [Compound 36], in test [1], the pest or weed control at 6.25 µg/mL fell in the range of 80 to 100%, the pest or weed control at 25 µg/mL is 80 to 100% and the pest or weed control at 100 µg/mL fell in the range of 80 to 100%. Further, the inhibition at 10 µM in test [2] is over 90%. For the same compound, in test [3], the pest or weed control at 100 µg/mL lay within 80 to 100%.
With `C=C(CN(C(=O)c1c(C(F)F)nn(C)c1F)C1CC1)c1cc(C)ccc1C` [Compound 34], in test [1], the pest or weed control at 6.25 µg/mL was 70 to 80%, the pest or weed control at 25 µg/mL lay in the range of 80 to 100% and the pest or weed control at 100 µg/mL lay within 80 to 100%. Further, in test [2], the inhibition at 10 µM was over 90%. Further, the pest or weed control at 100 µg/mL in test [3] fell in the range of 80 to 100%.
Regarding `Cc1ccc(C)c(C(CN(C(=O)c2c(C(F)F)nn(C)c2F)C2CC2)=C(Cl)Cl)c1` [Compound 141], the pest or weed control at 100 µg/mL in test [1] and in test [3] was 80 to 100% each time. Moreover, the inhibition at 10 µM in test [2] was over 90%.
`C=C(CN(C(=O)c1c(C(F)F)nn(C)c1F)C1CC1)c1ccc(S(C)(=O)=O)cc1Cl` [Compound 48]: the pest or weed control at 100 µg/mL in test [1] and in test [3] was 80 to 100% throughout. The inhibition at 10 µM in test [2] was over 90%.
Take `Cn1nc(C(F)F)c(C(=O)N(CC(=C(Cl)Cl)c2c(Cl)cccc2Cl)C2CC2)c1F` [Compound 120]: the pest or weed control at 100 µg/mL in test [1] and in test [3] was 80 to 100% each time. In addition, the inhibition at 10 µM in test [2] is over 90%.
Turning to `C=C(CN(C(=O)c1c(C(F)F)nn(C)c1F)C1CC1)c1ccc(Cl)c(C(F)(F)F)c1` [Compound 11], the pest or weed control at 100 µg/mL in test [1] and in test [3] was 80 to 100% each time. Besides, the inhibition at 10 µM in test [2] was over 90%.
Regarding `Cn1nc(C(F)F)c(C(=O)N(CC(=C(Cl)Cl)c2ccccc2Cl)C2CC2)c1F` [Compound 116], the pest or weed control at 100 µg/mL in test [1] and in test [3] was 80 to 100% in each case. Moreover, the inhibition at 10 µM in test [2] was over 90%.
In the case of `C=C(c1cccc(S(C)(=O)=O)c1)C(C)N(C(=O)c1c(C(F)F)nn(C)c1F)C1CC1` (stereo not shown) [Compound 104], the pest or weed control at 100 µg/mL in test [1] and in test [3] was 80 to 100% each time. Moreover, in test [2], the inhibition at 10 µM is over 90%.
Regarding `C=C(c1ccc(C(C)C)cc1C)C(C)N(C(=O)c1c(C(F)F)nn(C)c1F)C1CC1` (stereo not shown) [Compound 96], the pest or weed control at 100 µg/mL in test [1] and in test [3] was 80 to 100% in each case. In addition, the inhibition at 10 µM in test [2] was over 90%.
`Cc1ccc(C(=C(Cl)Cl)C(C)N(C(=O)c2c(C(F)F)nn(C)c2F)C2CC2)cc1C` (stereo not shown) [Compound 204]: the pest or weed control at 100 µg/mL in test [1] and in test [3] was 80 to 100% throughout. The inhibition at 10 µM in test [2] was over 90%.
For `C=C(CN(C(=O)c1c(C(F)F)nn(C)c1F)C1CC1)c1cc(C)ccc1C(C)(C)C` [Compound 39], the pest or weed control at 100 µg/mL in test [1] lay in the range of 80 to 100%; in test [3], 70 to 80%. Also, the inhibition at 10 µM in test [2] was over 90%.
For the compound `Cn1nc(C(F)F)c(C(=O)N(CC(=C(Cl)Cl)c2c(F)cc(F)cc2F)C2CC2)c1F` [Compound 129], the pest or weed control at 100 µg/mL in test [1] and in test [3] was 80 to 100% in each case. Further, the inhibition at 10 µM in test [2] was over 90%.
Turning to `C=C(c1ccccc1Br)C(C)N(C(=O)c1c(C(F)F)nn(C)c1F)C1CC1` (stereo not shown) [Compound 80], the pest or weed control at 100 µg/mL in test [1] and in test [3] was 80 to 100% each time. Besides, in test [2], the inhibition at 10 µM is over 90%.
Take `Cc1ccc(C(C)(C)C)c(C(=C(Cl)Cl)C(C)N(C(=O)c2c(C(F)F)nn(C)c2F)C2CC2)c1` (stereo not shown) [Compound 199]: the pest or weed control at 100 µg/mL in test [1] and in test [3] was 80 to 100% in each case. Besides, the inhibition at 10 µM in test [2] was over 90%.
As for `C=C(c1cccc(C(F)(F)F)c1Cl)C(C)N(C(=O)c1c(C(F)F)nn(C)c1F)C1CC1` (stereo not shown) [Compound 101], the pest or weed control at 100 µg/mL in test [1] and in test [3] was 80 to 100% in each case. Moreover, the inhibition at 10 µM in test [2] was over 90%.
In the case of `C=C(c1ccccc1F)C(C)N(C(=O)c1c(C(F)F)nn(C)c1F)C1CC1` (stereo not shown) [Compound 58], the pest or weed control at 100 µg/mL in test [1] and in test [3] was 80 to 100% each time. In addition, the inhibition at 10 µM in test [2] was over 90%.
Consider `C=C(c1ccccc1S(C)(=O)=O)C(C)N(C(=O)c1c(C(F)F)nn(C)c1F)C1CC1` (stereo not shown) [Compound 105], for which the pest or weed control at 100 µg/mL in test [1] and in test [3] was 80 to 100% throughout. Also, the inhibition at 10 µM in test [2] is over 90%.
`C=C(CN(C(=O)c1c(C(F)F)nn(C)c1F)C1CC1)c1cccc(S(C)(=O)=O)c1` [Compound 49]: the pest or weed control at 100 µg/mL in test [1] and in test [3] was 80 to 100% throughout. In test [2], the inhibition at 10 µM was over 90%.
On to `C=C(CN(C(=O)c1c(C(F)F)nn(C)c1F)C1CC1)c1ccc(S(=O)(=O)CC)cc1` [Compound 52], for which the pest or weed control at 100 µg/mL in test [1] and in test [3] was 80 to 100% in each case. Also, in test [2], the inhibition at 10 µM was over 90%.
With `Cc1cc(C)c(C(=C(Cl)Cl)C(C)N(C(=O)c2c(C(F)F)nn(C)c2F)C2CC2)c(C)c1` (stereo not shown) [Compound 196], the pest or weed control at 100 µg/mL in test [1] and in test [3] was 80 to 100% throughout. Also, in test [2], the inhibition at 10 µM was over 90%.
`CC(C(=C(Cl)Cl)c1c(Cl)cc(Cl)cc1Cl)N(C(=O)c1c(C(F)F)nn(C)c1F)C1CC1` (stereo not shown) [Compound 175]: the pest or weed control at 100 µg/mL in test [1] and in test [3] was 80 to 100% each time. The inhibition at 10 µM in test [2] is over 90%.
For the compound `C=C(CN(C(=O)c1c(C(F)F)nn(C)c1F)C1CC1)c1c(Cl)cccc1Cl` [Compound 18], the pest or weed control at 100 µg/mL in test [1] and in test [3] was 80 to 100% in each case. Further, in test [2], the inhibition at 10 µM is over 90%.
As for `C=C(CN(C(=O)c1c(C(F)F)nn(C)c1F)C1CC1)c1cc(Cl)ccc1F` [Compound 44], the pest or weed control at 100 µg/mL in test [1] and in test [3] was 80 to 100% in each case. Besides, the inhibition at 10 µM in test [2] is over 90%.
With `C=C(CN(C(=O)c1c(C(F)F)nn(C)c1F)C1CC1)c1c(F)cccc1F` [Compound 25], the pest or weed control at 100 µg/mL in test [1] and in test [3] was 80 to 100% in each case. In addition, the inhibition at 10 µM in test [2] was over 90%.
With `C=C(CN(C(=O)c1c(C(F)F)nn(C)c1F)C1CC1)c1ccccc1Br` [Compound 3], the pest or weed control at 100 µg/mL in test [1] and in test [3] was 80 to 100% throughout. Also, the inhibition at 10 µM in test [2] was over 90%.
For `CC(C(=C(Cl)Cl)c1ccccc1S(C)(=O)=O)N(C(=O)c1c(C(F)F)nn(C)c1F)C1CC1` (stereo not shown) [Compound 214], the pest or weed control at 100 µg/mL in test [1] and in test [3] was 80 to 100% each time. Also, in test [2], the inhibition at 10 µM is over 90%.
As for `C=C(CN(C(=O)c1c(C(F)F)nn(C)c1F)C1CC1)c1cccc(C)c1` [Compound 32], the pest or weed control at 100 µg/mL lay in the range of 80 to 100% in test [1] and 70 to 80% in test [3]. Moreover, in test [2], the inhibition at 10 µM was over 90%.
The like results for `C=C(CN(C(=O)c1c(C(F)F)nn(C)c1F)C1CC1)c1ccc(C)cc1C` [Compound 33] were, in that order, 80 to 100%, 80 to 100% and over 90%.
Turning to `CC(C(=C(Cl)Cl)c1cccc(Cl)c1)N(C(=O)c1c(C(F)F)nn(C)c1F)C1CC1` (stereo not shown) [Compound 169], the pest or weed control at 100 µg/mL in test [1] and in test [3] was 80 to 100% in each case. Further, the inhibition at 10 µM in test [2] is over 90%.
In the case of `C=C(c1ccc(S(C)(=O)=O)cc1Cl)C(C)N(C(=O)c1c(C(F)F)nn(C)c1F)C1CC1` (stereo not shown) [Compound 103], the pest or weed control at 100 µg/mL in test [1] and in test [3] was 80 to 100% throughout. In addition, the inhibition at 10 µM in test [2] is over 90%.
As to `CC(C(=C(Cl)Cl)c1ccccc1F)N(C(=O)c1c(C(F)F)nn(C)c1F)C1CC1` (stereo not shown) [Compound 176], the pest or weed control at 100 µg/mL in test [1] and in test [3] was 80 to 100% each time. Also, in test [2], the inhibition at 10 µM is over 90%.
